The source made the active and inactive calls. No cut-off for these calls is given here.
How the values were obtained:
[1] = target: T1, Gamma-aminobutyric acid receptor subunit alpha-4/beta-2/gamma-2 (Homo sapiens, UniProt P47870+P18507+P48169); experiment: Agonist activity at recombinant human GABA-A alpha4beta2gamma2S receptor transiently expressed in human tsA201 cells at >= 1000 uM incubated for 30 mins and measured up to 90 secs by FMP dye based FLIPR membrane potential blue assay; type: cell-based
Homo sapiens [2] = species: Homo sapiens; experiment: Selectivity ratio of IC50 for human GAT2 expressed in Flp-In CHO cells to IC50 for human BGT1 expressed in Flp-In CHO cells; type: cell-based
Homo sapiens [3] = species: Homo sapiens; experiment: Selectivity ratio of IC50 for human GAT1 expressed in Flp-In CHO cells to IC50 for human BGT1 expressed in Flp-In CHO cells; type: cell-based
Homo sapiens [4] = species: Homo sapiens; experiment: Selectivity ratio of IC50 for human GAT3 expressed in Flp-In CHO cells to IC50 for human BGT1 expressed in Flp-In CHO cells; type: cell-based
[5] = target: T2, Gamma-aminobutyric acid receptor subunit rho-1 (Homo sapiens, UniProt P24046); experiment: Agonist activity at recombinant human GABA-A rho-1 receptor transiently expressed in human tsA201 cells at >= 100 uM incubated for 30 mins and measured up to 90 secs by FMP dye based FLIPR membrane potential blue assay; type: cell-based
T2 sequence (P24046 whole entry): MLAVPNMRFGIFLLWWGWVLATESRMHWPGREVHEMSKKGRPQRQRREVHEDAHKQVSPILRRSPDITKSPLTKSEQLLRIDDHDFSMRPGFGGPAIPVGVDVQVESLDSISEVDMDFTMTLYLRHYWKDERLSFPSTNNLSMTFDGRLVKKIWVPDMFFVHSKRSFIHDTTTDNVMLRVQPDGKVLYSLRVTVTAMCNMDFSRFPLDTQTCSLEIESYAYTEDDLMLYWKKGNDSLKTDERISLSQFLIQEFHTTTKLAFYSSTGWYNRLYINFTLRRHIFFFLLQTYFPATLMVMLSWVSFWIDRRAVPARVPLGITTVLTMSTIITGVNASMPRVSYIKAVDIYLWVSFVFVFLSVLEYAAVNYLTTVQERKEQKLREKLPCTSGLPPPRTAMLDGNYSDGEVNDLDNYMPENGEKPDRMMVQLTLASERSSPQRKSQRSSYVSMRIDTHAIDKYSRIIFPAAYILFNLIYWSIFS

Homo sapiens [6] = species: Homo sapiens
[7] = target: T3, GABA-A receptor; alpha-1/beta-2/gamma-2 (Homo sapiens) (UniProt P14867+P47870+P18507); experiment: Agonist activity at recombinant human GABA-A alpha1beta2gamma2S receptor transiently expressed in human tsA201 cells at >= 300 uM incubated for 30 mins and measured up to 90 secs by FMP dye based FLIPR membrane potential blue assay; type: cell-based
Homo sapiens [8] = species: Homo sapiens; experiment: Agonist activity at recombinant human GABA-A alpha3beta2gamma2S receptor transiently expressed in human tsA201 cells at >= 100 uM incubated for 30 mins and measured up to 90 secs by FMP dye based FLIPR membrane potential blue assay; type: cell-based
Homo sapiens [9] = species: Homo sapiens; experiment: Agonist activity at recombinant human GABA-A alpha3beta2gamma2S receptor transiently expressed in human tsA201 cells at >= 300 uM incubated for 30 mins and measured up to 90 secs by FMP dye based FLIPR membrane potential blue assay; type: cell-based
[10] = target: T3, GABA-A receptor; alpha-1/beta-2/gamma-2 (Homo sapiens); experiment: Agonist activity at recombinant human GABA-A alpha1beta2gamma2S receptor transiently expressed in human tsA201 cells at >= 1000 uM incubated for 30 mins and measured up to 90 secs by FMP dye based FLIPR membrane potential blue assay; type: cell-based
[11] = target: T2, Gamma-aminobutyric acid receptor subunit rho-1; experiment: Antagonist activity at recombinant human GABA-A rho-1 receptor transiently expressed in human tsA201 cells incubated for 30 mins and measured up to 90 secs by FMP dye based FLIPR membrane potential blue assay; type: cell-based
[12] = target: T2, Gamma-aminobutyric acid receptor subunit rho-1; experiment: Agonist activity at recombinant human GABA-A rho-1 receptor transiently expressed in human tsA201 cells at 300 uM incubated for 30 mins and measured up to 90 secs by FMP dye based FLIPR membrane potential blue assay; type: cell-based
[13] = target: T1, Gamma-aminobutyric acid receptor subunit alpha-4/beta-2/gamma-2; experiment: Agonist activity at recombinant human GABA-A alpha4beta2gamma2S receptor transiently expressed in human tsA201 cells at >= 100 uM incubated for 30 mins and measured up to 90 secs by FMP dye based FLIPR membrane potential blue assay; type: cell-based

Compound	Activity [5]	pEC50 (Homo sapiens [6])	Activity [7]	IC50 [11] [µM]	Activity [12]	further results
C[C@@H](C(=O)O)[C@@H]1CSC(N)=N1 (relative stereo)	–	–	–	–	–	Activity [1]: Active
NC1=NC(CC(=O)O)CN1 (stereo not drawn)	–	–	–	–	–	Ratio IC50 (Homo sapiens [2]): 14 to 44; Ratio IC50 (Homo sapiens [3]): 14 to 44; Ratio IC50 (Homo sapiens [4]): 14 to 44
O=C(O)C[C@@H]1CCNC1	Active	inactive	Active	–	–	Activity (Homo sapiens [8]): Active
C[C@H]1SC(N)=N[C@@H]1CC(=O)O (relative stereo)	Active	inactive	Active	–	–	Activity (Homo sapiens [9]): Active
C[C@@H]1SC(N)=N[C@@H]1CC(=O)O (relative stereo)	–	–	–	100	inactive	Activity [10]: Active
C[C@@H](C(=O)O)[C@H]1CSC(N)=N1 (relative stereo)	–	–	–	300	inactive	Activity [13]: Active
